Here are results for three molecules from patent publication US20250195513A1, “DEGRADATION OF IRAK4 BY CONJUGATION OF IRAK4 INHIBITORS WITH E3 LIGASE LIGAND AND METHODS OF USE” (BeiGene, Ltd., priority 2022, published 2025).

What all share (assay type): cell-based
In experiment [1] the target is T1, IRAK4 (Homo sapiens, UniProt Q9NWZ3).
T1 construct: endogenous in cells; host or cells: Karpas299
T1 sequence (Q9NWZ3 1-460): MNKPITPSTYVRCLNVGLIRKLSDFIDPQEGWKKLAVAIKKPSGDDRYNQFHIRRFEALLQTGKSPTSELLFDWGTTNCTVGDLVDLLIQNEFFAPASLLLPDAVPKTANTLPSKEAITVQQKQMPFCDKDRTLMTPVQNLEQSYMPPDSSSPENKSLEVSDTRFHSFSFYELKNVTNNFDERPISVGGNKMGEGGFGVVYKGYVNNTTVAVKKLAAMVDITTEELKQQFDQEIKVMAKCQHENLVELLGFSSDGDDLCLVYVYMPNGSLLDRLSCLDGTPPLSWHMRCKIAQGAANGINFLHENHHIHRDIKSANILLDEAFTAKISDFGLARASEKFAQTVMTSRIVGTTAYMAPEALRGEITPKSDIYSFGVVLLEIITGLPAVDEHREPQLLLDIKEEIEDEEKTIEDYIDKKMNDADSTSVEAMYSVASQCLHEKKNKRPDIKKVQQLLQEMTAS
As to the kind of experiment: IRAK4 Degradation Assay (Karpas299, HTRF/TR-FRET). As to conditions: Karpas-299 cells; for Dmax: maximum percentage of degradation. A digest of the protocol: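 Compound potency as DC50 (IC50) came from four-parameter fits of percent IRAK4 degradation. IRAK4 was measured by HTRF (665/620 nm) in lysates of Karpas299 cells seeded at 0.2 million per well. Cells had been treated with compound dilutions for 5 or 24 h.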

Experiment [2] relates to TNF-α production in THP-1 cells. As to the kind of experiment: TNF-α Production Assay in THP-1 Cells (LPS stimulated). As to conditions: Homo sapiens, THP-1, 24 h; for Emax: maximum inhibition, read-out: TNF-α (THP-1) 24 h IMax. A digest of the protocol: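 Cells (0.2 million/well) pretreated with compounds for 24 h, then stimulated with LPS at 1 μg/mL final for 24 h. TNF-α in culture supernatant quantified by TR-FRET immunoassay.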

Experiment [3] relates to IL-6 production in human PBMC. The experiment in a line: IL-6 Production Assay in Human PBMC (LPS stimulated). To be noted: Homo sapiens, 5 h; for Emax: maximum inhibition, read-out: IL-6 (PBMC) 5 h IMax. The essentials:
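Thawed PBMC were rested overnight at 37 °C, seeded at 0.2 million cells/well and pretreated with compounds for 24 h. They were then stimulated with LPS at 10 ng/mL for 5 h. IL-6 in the supernatant was quantified by TR-FRET.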

In experiment [4] the target is T1, IRAK4. The experiment in a line: IRAK4 Degradation Assay with Human Serum (Karpas299, HTRF/TR-FRET). As to conditions: Karpas-299 in human serum, 24 hrs treatment; for DC50: read-out: IRAK4 degradtion with human serum assay DC50; for Dmax: read-out: IRAK4 degradtion with human serum assay Dmax (%). A digest of the protocol:
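Remaining IRAK4 measured by TR-FRET immunoassay on lysates of Karpas299 cells exposed 24 h to compound dilution series in human serum AB. DC50 derived from a Hill-slope fit of % degradation versus concentration.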
In general terms: Time-resolved FRET reads energy transfer from a long-lived donor to a nearby acceptor.

[5] abbreviates: 24 h treatment, read-out: IRAK4 in Karpas-299 (24 h) Dmax (%).
Where [6] appears, read: 24 h treatment, read-out: IRAK4 in Karpas-299 (24 h) DC50.

By Dmax is commonly meant the greatest extent of degradation seen. The term DC50 denotes the midpoint of the concentration-degradation curve. What is called IC50 is the concentration needed to halve the response being measured. Take `COC[C@@H]1CN([C@H]2CC[C@H](n3cc4cc(NC(=O)c5ccc6cc(C#N)cnn56)c(C(C)(C)O)cc4n3)CC2)CCN1CCc1cc(F)c([C@H]2CCC(=O)NC2=O)c(F)c1` [Example 320]: the Dmax is 99% in experiment [1] (setting [5]) and 98% in experiment [4]. The DC50 in experiment [1] (setting [6]) came to 1 nM; in experiment [4] it was 4.1 nM. The IC50 in experiment [2] was found to be 43 nM; in experiment [3] it was 9.2 nM. Besides, the Emax was 85% in experiment [2] and 65% in experiment [3].

In the case of `CC(C)(O)c1cc2nn([C@H]3CC[C@H](N4CCN(C5CN(c6cc(F)c([C@H]7CCC(=O)NC7=O)c(F)c6)C5)CC4)CC3)cc2cc1NC(=O)c1ccc2cc(C#N)cnn12` [Example 110, 3-cyano-N-(2-((1R,4r)-4-(4-(1-(4-((R)-2,6-dioxopiperidin-3-yl)-3,5-difluorophenyl)azetidin-3-yl)piperazin-1-yl)cyclohexyl)-6-(2-hydroxypropan-2-yl)-2H-indazol-5-yl)pyrrolo[1,2-b]pyridazine-7-carboxamide], the Dmax in experiment [1] (5 h treatment, read-out: IRAK4 in Karpas-299 (5 h) Dmax (%)) was found to be 94%; in experiment [1] (setting [5]), 98%; in experiment [4] it was 100%. Also, the DC50 in experiment [1] (5 h treatment, read-out: IRAK4 in Karpas-299 (5 h) DC50) worked out at 1.1 nM; in experiment [1] (setting [6]) it was 0.8 nM; in experiment [4], 8.3 nM. Also, the IC50 in experiment [2] was 27 nM; in experiment [3], 1.5 nM. Further, the Emax in experiment [2] amounted to 83%; in experiment [3], 63%.

As to `CC(C)(O)c1cc2nn(C34CCC(N5CCN(CCc6cc(F)c([C@H]7CCC(=O)NC7=O)c(F)c6)CC5)(CC3)CC4)cc2cc1NC(=O)c1ccc2cc(C#N)cnn12` [Example 151, (R)-3-cyano-N-(2-(4-(4-(4-(2,6-dioxopiperidin-3-yl)-3,5-difluorophenethyl)piperazin-1-yl)bicyclo[2.2.2]octan-1-yl)-6-(2-hydroxypropan-2-yl)-2H-indazol-5-yl)pyrrolo[1,2-b]pyridazine-7-carboxamide], the figures for the Dmax in experiment [1] (setting [5]) and in experiment [4] were 99% and 101%, respectively. Further, the results for the DC50 in experiment [1] (setting [6]) and in experiment [4] were 0.9 nM and 3.9 nM, respectively. In addition, the values for the IC50 in experiment [2] and in experiment [3] were 27 nM and 7.4 nM, respectively. Further, the Emax turned out to be 84% in experiment [2] and 53% in experiment [3].
